From patent publication US10988477B2 (Merck Patent GmbH, priority 2018, dated 2021)
Like-named read-outs stand apart in the source and are kept apart here.

Columns and labels:
GCN2 kinase = GCN2 kinase (Homo sapiens, UniProt Q9P2K8); assay: GCN2 enzyme inhibition assay (Transcreener ADP2 fluorescence polarization); assay type: biochemical; conditions: 280 μM ATP
Procedure, shortened: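 Inhibition of 4 nM GCN2 was measured with compound up to 8 μM final, ATP 280 μM and (RS)7 peptide 200 μM over a 1 h, 25 °C reaction. ADP FP readout; IC50 and Ki(app) calculated from percent inhibition.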

[1] = biological target: intracellular GCN2 (phosphorylation of the GCN2 substrate eIF2α) (Homo sapiens, UniProt Q9P2K8); assay: GCN2 cellular inhibition assay (AlphaScreen SureFire P-eIF2α Ser51, borrelidin-treated U2OS cells); assay type: cell-based
Procedure, shortened: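 Compound effect on GCN2 is gauged by eIF2α Ser51 phosphorylation in borrelidin-challenged U2OS cells (10 μM, 1 h). Top compound level is 40 μM final.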

[2] = Enzyme activity for compounds of Formula IV, Ki(app), 25° C.
[3] = compounds of Formula IV, biomarker assay, phosphorylated eIF2α Ser51 in borrelidin-treated U2OS cells
[4] = compounds of Formula II, 4 nM GCN2 kinase
[5] = compounds of Formula II, biomarker assay, phosphorylated eIF2α Ser51 in borrelidin-treated U2OS cells

intracellular GCN2 (phosphorylation of the GCN2 substrate eIF2α), sequence (Q9P2K8 whole entry): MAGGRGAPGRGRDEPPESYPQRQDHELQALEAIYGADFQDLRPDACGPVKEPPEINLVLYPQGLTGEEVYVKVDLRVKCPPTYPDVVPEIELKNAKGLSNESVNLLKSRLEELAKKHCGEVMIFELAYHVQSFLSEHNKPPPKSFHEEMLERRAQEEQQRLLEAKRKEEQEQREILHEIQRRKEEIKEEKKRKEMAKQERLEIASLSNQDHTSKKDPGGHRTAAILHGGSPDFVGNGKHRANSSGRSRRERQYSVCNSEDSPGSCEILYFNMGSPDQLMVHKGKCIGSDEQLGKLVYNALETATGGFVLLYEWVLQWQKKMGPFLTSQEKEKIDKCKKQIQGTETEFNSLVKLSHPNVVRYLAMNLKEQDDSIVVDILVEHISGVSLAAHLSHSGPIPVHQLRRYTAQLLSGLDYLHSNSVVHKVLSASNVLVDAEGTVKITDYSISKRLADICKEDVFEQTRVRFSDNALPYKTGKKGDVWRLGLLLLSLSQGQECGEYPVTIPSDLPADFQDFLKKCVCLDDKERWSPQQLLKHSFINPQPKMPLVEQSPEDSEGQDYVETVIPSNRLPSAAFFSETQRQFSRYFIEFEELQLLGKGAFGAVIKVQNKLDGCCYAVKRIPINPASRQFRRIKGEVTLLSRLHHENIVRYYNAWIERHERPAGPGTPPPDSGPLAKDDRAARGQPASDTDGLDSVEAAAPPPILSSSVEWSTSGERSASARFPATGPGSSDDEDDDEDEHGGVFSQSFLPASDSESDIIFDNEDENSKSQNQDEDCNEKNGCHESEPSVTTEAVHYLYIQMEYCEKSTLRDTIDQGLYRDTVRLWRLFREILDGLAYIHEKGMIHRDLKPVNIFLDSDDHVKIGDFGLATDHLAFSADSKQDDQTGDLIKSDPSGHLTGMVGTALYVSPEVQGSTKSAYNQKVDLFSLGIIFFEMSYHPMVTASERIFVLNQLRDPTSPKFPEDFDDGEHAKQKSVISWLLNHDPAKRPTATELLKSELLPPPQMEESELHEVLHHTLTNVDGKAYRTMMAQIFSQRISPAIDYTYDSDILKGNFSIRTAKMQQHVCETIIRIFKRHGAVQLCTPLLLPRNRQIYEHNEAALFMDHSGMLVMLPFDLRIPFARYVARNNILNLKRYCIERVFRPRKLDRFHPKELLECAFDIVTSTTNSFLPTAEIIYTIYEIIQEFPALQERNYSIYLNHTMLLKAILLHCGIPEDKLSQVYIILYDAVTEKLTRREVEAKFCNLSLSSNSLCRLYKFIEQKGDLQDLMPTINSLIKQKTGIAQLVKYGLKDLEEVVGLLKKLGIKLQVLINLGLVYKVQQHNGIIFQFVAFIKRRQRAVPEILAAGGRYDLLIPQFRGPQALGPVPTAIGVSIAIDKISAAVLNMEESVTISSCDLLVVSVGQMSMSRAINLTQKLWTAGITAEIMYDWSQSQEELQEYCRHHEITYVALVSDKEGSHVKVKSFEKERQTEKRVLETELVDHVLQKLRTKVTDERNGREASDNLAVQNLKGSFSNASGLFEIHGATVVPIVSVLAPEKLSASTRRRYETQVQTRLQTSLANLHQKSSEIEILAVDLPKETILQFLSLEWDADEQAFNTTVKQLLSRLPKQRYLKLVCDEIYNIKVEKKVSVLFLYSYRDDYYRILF
GCN2 kinase, sequence (Q9P2K8 whole entry): as above

| SMILES | Ki (GCN2 kinase; [2]) | IC50 [1, 3] | Ki (GCN2 kinase; [4]) | IC50 [1, 5] | further results |
| --- | --- | --- | --- | --- | --- |
| CN1CCN(c2ccnc(-c3cnc4cnc(C(F)F)cn34)n2)CC12CCNCC2 [IV-123, 4-(2-(6-(Difluoromethyl)imidazo[1,2-a]pyrazin-3-yl)pyrimidin-4-yl)-1-methyl-1,4,9-triazaspiro[5.5]undecane] | 100 to 1000 nM | > 5000 nM |  |  |  |
| CC1CN(c2ccnc(-c3cnc4cnc(C(F)(F)F)cn34)n2)CC(c2cn[nH]c2Cl)N1 (single isomer, unassigned) [IV-651, 3-[4-[3-(5-Chloro-1H-pyrazol-4-yl)-5-methyl-piperazin-1-yl]pyrimidin-2-yl]-6-(trifluoromethyl)imidazo[1,2-a]pyrazine] | < 10 nM | < 500 nM |  |  |  |
| OCC1CN(c2cc(-c3cnc4ccc(C(F)F)nn34)ncn2)CCO1 (centres unmarked) [II-521, (4-(6-(6-(Difluoromethyl)imidazo[1,2-b]pyridazin-3-yl)pyrimidin-4-yl)morpholin-2-yl)methanol] |  |  | 10 to 1000 nM | 500 to 5000 nM |  |
| FC(F)(F)c1ccc2ncc(-c3cc(N4CCCC(c5c[nH]cn5)C4)ncn3)n2n1 (centres unmarked) [II-715] |  |  | 10 to 1000 nM | 500 to 5000 nM |  |
| NS(=O)(=O)N1CCCN(c2cc(-c3cnc4ccc(C(F)F)nn34)ncn2)CC1 [II-24, 4-(6-(6-(Difluoromethyl)imidazo[1,2-b]pyridazin-3-yl)pyrimidin-4-yl)-1,4-diazepane-1-sulfonamide] |  |  | 10 to 1000 nM | > 5000 nM |  |
| COCC1CCCN(c2ccnc(-c3cnc4cnc(C(F)(F)F)cn34)n2)C1 (centres unmarked) [IV-495, 3-(4-(3-(Methoxymethyl)piperidin-1-yl)pyrimidin-2-yl)-6-(trifluoromethyl)imidazo[1,2-a]pyrazine] | 100 to 1000 nM | > 5000 nM |  |  |  |
| CC1CC(CS(C)(=N)=O)C(C)N(c2ccnc(-c3cnc4sc(C(F)(F)F)cn34)n2)C1 (centres unmarked) [Compound V-17, ((2,5-Dimethyl-1-(2-(2-(trifluoromethyl)imidazo[2,1-b]thiazol-5-yl)pyrimidin-4-yl)piperidin-3-yl)methyl)(imino)(methyl)-λ^6-sulfanone] |  |  |  |  | Ki (GCN2 kinase; compounds of Formula V, 4 nM GCN2 kinase): 10 to 100 nM; IC50 ([1]; compounds of Formula V, U2OS cells, 10 μM borrelidin, 1 h, read-out: GCN2 Biomarker (IC50)): 500 to 5000 nM |
| NC(=O)C1CN(c2cc(-c3cnc4ccc(C(F)F)nn34)ncn2)c2ccccc21 (centres unmarked) [II-16, 1-(6-(6-(Difluoromethyl)imidazo[1,2-b]pyridazin-3-yl)pyrimidin-4-yl)indoline-3-carboxamide] |  |  | 10 to 1000 nM | > 5000 nM |  |
| CS(=O)(=O)CCN1CCCC(c2cc(-c3cnc4ccc(C(F)F)nn34)ncn2)C1 (centres unmarked) [II-48, 6-(Difluoromethyl)-3-(6-(1-(2-(methylsulfonyl)ethyl)piperidin-3-yl)pyrimidin-4-yl)imidazo[1,2-b]pyridazine] |  |  | 10 to 1000 nM | > 5000 nM |  |
| FC(F)(F)c1cn2c(-c3nccc(N4CCNC(c5cn[nH]c5)C4)n3)cnc2cn1 (centres unmarked) [IV-211, 3-(4-(3-(1H-Pyrazol-4-yl)piperazin-1-yl)pyrimidin-2-yl)-6-(trifluoromethyl)imidazo[1,2-a]pyrazine] | < 10 nM | 500 to 5000 nM |  |  |  |
| C[C@@H]1CC[C@H](CNS(C)(=O)=O)CN1c1cc(-c2cnc3ccc(C(F)F)nn23)ncn1 [II-247, N-(((3S,6R)-1-(6-(6-(Difluoromethyl)imidazo[1,2-b]pyridazin-3-yl)pyrimidin-4-yl)-6-methylpiperidin-3-yl)methyl)methanesulfonamide] |  |  | < 10 nM | < 500 nM |  |
| NC(=O)c1cn2c(-c3cccc(N4CCCCC4)n3)cnc2cn1 [IV-204, 3-(6-(Piperidin-1-yl)pyridin-2-yl)imidazo[1,2-a]pyrazine-6-carboxamide] | 10 to 100 nM | > 5000 nM |  |  |  |
| O=C1NCCC12CCCN(c1cc(-c3cnc4ccc(C(F)F)nn34)ccn1)C2 (centres unmarked) [II-156, 7-(4-(6-(Difluoromethyl)imidazo[1,2-b]pyridazin-3-yl)pyridin-2-yl)-2,7-diazaspiro[4.5]decan-1-one] |  |  | 10 to 1000 nM | 500 to 5000 nM |  |
| FC(F)(F)c1cn2c(-c3nccc(N4CCCC(c5cn[nH]c5Cl)C4)n3)cnc2cn1 (centres unmarked) [IV-601, 3-(4-(3-(5-Chloro-1H-pyrazol-4-yl)piperidin-1-yl)pyrimidin-2-yl)-6-(trifluoromethyl)imidazo[1,2-a]pyrazine] | < 10 nM | < 500 nM |  |  |  |
| CS(=O)(=O)NC1CCCN(c2ccnc(-c3cnc4cnc(C(F)F)cn34)n2)C1 (centres unmarked) [IV-169, N-(1-(2-(6-(Difluoromethyl)imidazo[1,2-a]pyrazin-3-yl)pyrimidin-4-yl)piperidin-3-yl)methanesulfonamide] | 100 to 1000 nM | > 5000 nM |  |  |  |
| O=C1OC2(CC2)[C@@H]2CN(c3cc(-c4cnc5ccc(C(F)(F)F)nn45)ccn3)CCN12 [II-226, (S)-7′-(4-(6-(Trifluoromethyl)imidazo[1,2-b]pyridazin-3-yl)pyridin-2-yl)tetrahydrospiro[cyclopropane-1,1′-oxazolo[3,4-a]pyrazin]-3′(5′H)-one] |  |  | 10 to 1000 nM | 500 to 5000 nM |  |

| SMILES | Ki (GCN2 kinase; [2]) | IC50 [1, 3] | Ki (GCN2 kinase; [4]) | IC50 [1, 5] | further results |
| --- | --- | --- | --- | --- | --- |
| CS(=O)(=O)NCC1CCCN(c2ccnc(-c3cnc4cnc(C(F)F)cn34)n2)C1 (centres unmarked) [IV-152, N-((1-(2-(6-(Difluoromethyl)imidazo[1,2-a]pyrazin-3-yl)pyrimidin-4-yl)piperidin-3-yl)methyl)methanesulfonamide] | 100 to 1000 nM | > 5000 nM |  |  |  |
| Clc1cn2c(-c3nccc(N4CCNC(c5c[nH]cn5)C4)n3)cnc2cn1 (centres unmarked) [IV-347, 3-(4-(3-(1H-Imidazol-4-yl)piperazin-1-yl)pyrimidin-2-yl)-6-chloroimidazo[1,2-a]pyrazine] | 100 to 1000 nM | > 5000 nM |  |  |  |
| CC1CN(c2cc(N3CCC3)nc(-c3cnc4cnc(C(F)(F)F)cn34)n2)C(C)C(c2cn[nH]c2)N1 (centres unmarked) [IV-637, 3-(4-(Azetidin-1-yl)-6-(2,5-dimethyl-3-(1H-pyrazol-4-yl)piperazin-1-yl)pyrimidin-2-yl)-6-(trifluoromethyl)imidazo[1,2-a]pyrazine] | < 10 nM | 500 to 5000 nM |  |  |  |
| CC(C)(C)OC(=O)N1CCC2CCN(c3ccnc(-c4cnc5cnc(C(F)F)cn45)n3)CC21 (centres unmarked) [IV-132, tert-Butyl 6-(2-(6-(difluoromethyl)imidazo[1,2-a]pyrazin-3-yl)pyrimidin-4-yl)octahydro-1H-pyrrolo[2,3-c]pyridine-1-carboxylate] | 100 to 1000 nM | > 5000 nM |  |  |  |
| Clc1ccc2ncc(-c3ccnc(N4CCC5CNCC5C4)c3)n2n1 (centres unmarked) [II-188] |  |  | 10 to 1000 nM | 500 to 5000 nM |  |
| FC(F)(F)c1ccc2ncc(-c3ccnc(N4CCOC(c5cn[nH]c5)C4)c3)n2n1 (centres unmarked) [II-225, 2-(1H-Pyrazol-4-yl)-4-(4-(6-(trifluoromethyl)imidazo[1,2-b]pyridazin-3-yl)pyridin-2-yl)morpholine] |  |  | < 10 nM | < 500 nM |  |
| CC1CN(c2nccc(-c3cnc4cnc(Cl)cn34)n2)C(C)C(c2cn[nH]c2)N1 (single isomer, unassigned) [IV-407, 6-Chloro-3-(2-(2,5-dimethyl-3-(1H-pyrazol-4-yl)piperazin-1-yl)pyrimidin-4-yl)imidazo[1,2-a]pyrazine] | < 10 nM | 500 to 5000 nM |  |  |  |
| CNc1cc(-c2cnc3ccc(C(F)F)nn23)cc(N2CC(C)C(F)(F)C(CNS(C)(=O)=O)C2)n1 (centres unmarked) [II-65, N-((1-(4-(6-(Difluoromethyl)imidazo[1,2-b]pyridazin-3-yl)-6-(methylamino)pyridin-2-yl)-4,4-difluoro-5-methylpiperidin-3-yl)methyl)methanesulfonamide] |  |  | < 10 nM | 500 to 5000 nM |  |
| O=C(NCCO)N1CCC(c2cc(-c3cnc4ccc(C(F)F)nn34)ncn2)C1 (centres unmarked) [II-254, 3-(6-(6-(Difluoromethyl)imidazo[1,2-b]pyridazin-3-yl)pyrimidin-4-yl)-N-(2-hydroxyethyl)pyrrolidine-1-carboxamide] |  |  | 10 to 1000 nM | > 5000 nM |  |
| Cc1cc(N2CC(C)NC(c3cn[nH]c3)C2C)nc(-c2cnc3cnc(C(F)(F)F)cn23)n1 (single isomer, unassigned) [IV-670, 3-(4-(2,5-Dimethyl-3-(1H-pyrazol-4-yl)piperazin-1-yl)-6-methylpyrimidin-2-yl)-6-(trifluoromethyl)imidazo[1,2-a]pyrazine] | < 10 nM | 500 to 5000 nM |  |  |  |
| N#CCC(=O)N1CCCC(c2cc(-c3cnc4ccc(C(F)F)nn34)ncn2)C1 (centres unmarked) [II-30, 3-(3-(6-(6-(Difluoromethyl)imidazo[1,2-b]pyridazin-3-yl)pyrimidin-4-yl)piperidin-1-yl)-3-oxopropanenitrile] |  |  | 10 to 1000 nM | 500 to 5000 nM |  |
| O=C1CCC2CN(c3cc(-c4cnc5ccc(C(F)F)nn45)ccn3)CCN12 (centres unmarked) [II-167, 2-(4-(6-(Difluoromethyl)imidazo[1,2-b]pyridazin-3-yl)pyridin-2-yl)hexahydropyrrolo[1,2-a]pyrazin-6(2H)-one] |  |  | 10 to 1000 nM | > 5000 nM |  |
| CC1CCC(N=S(C)(C)=O)CN1c1cc(-c2cnc3ccc(C(F)F)nn23)ncn1 (centres unmarked) [II-696, [1-[6-[6-(Difluoromethyl)imidazo[1,2-b]pyridazin-3-yl]pyrimidin-4-yl]-6-methyl-3-piperidyl]imino-dimethyl-λ^6-sulfanone] |  |  | 10 to 1000 nM | > 5000 nM |  |
| CC1CCC(C(N)=O)CN1c1ccnc(-c2cnc3cnc(C(F)(F)F)cn23)n1 (centres unmarked) [IV-631, 6-Methyl-1-(2-(6-(trifluoromethyl)imidazo[1,2-a]pyrazin-3-yl)pyrimidin-4-yl)piperidine-3-carboxamide] | 10 to 100 nM | 500 to 5000 nM |  |  |  |
| CC(=O)N1CCN(c2cc(-c3cnn4ccc(C(F)F)nc34)ccn2)CC1 |  |  |  |  | Ki (GCN2 kinase; compounds of Formula III, 4 nM GCN2 kinase): 10 to 1000 nM; IC50 ([1]; compounds of Formula III, U2OS cells, 10 μM borrelidin, 1 h, read-out: GCN2 Biomarker (IC50)): 500 to 5000 nM |
